Source: patent EP3233102B1, “USE OF AN ANTIMICROBIAL PEPTIDE TO INDUCE CELL DEATH IN BREAST CANCER” (Bolkent, Sehnaz, priority 2014, dated 2024)
Where a SMILES comes first, the peptide text is derived from it. Bridges are numbered along the chain shown (N, C = ends). Where no end group is shown, it is not given here.

Columns and labels:
MDA-MB 231 cells = assay: Lactate dehydrogenase (LDH) release cytotoxicity assay; format: cell-based; conditions: 24 hours, FIG. 5
MCF-7 cells = assay: as above; format: cell-based; conditions: 24 hours, FIG. 4
Source text: (§1) The lactate dehydrogenase (LDH) release assay was used to measure cytotoxicity. Lactate dehydrogenase (LDH) is a stable cytoplasmic enzyme present in most cells. During damage to or rupture of cell cytoplasmic membranes, LDH is released from cells and into the surrounding cell culture supernatant. Quantitation of LDH in cell culture supernatant was used to measure cellular toxicity levels.
Both MCF-7 and control (normal) cells were detached from 75 cm^2 flasks with trypsin-EDTA and centrifuged. Cells were resuspended in cell culture media and diluted to a concentration of 50 cells/ µl 100 µl of cell suspension was transferred to each well of a 96-well plate. Three wells of cells were used for each concentration of cyclic dodecapeptide. The asay was performed in triplicates. […] The media of the experiment groups was replaced with media containing 50, 100, or 200 µg/ml of cyclic dodecapeptide. After the cells were incubated with cyclic dodecapeptide for 24 hours, the activity of released lactate dehydrogenase was detected following manufacture prototol. 5 µl of lysis solution (2% Triton-X-100) was added to each well. The plate was incubated at 37 °C for 15 minutes. 100 µ ? of freshly prepared reaction mixture containing catalyst (Diaphoresis NAD^+mixture) and dye solution (iodotetrazolium chloride (INT) and sodium lactate) was added to each well. After incubation in dark at room temperature for 30 minutes, the reaction was stopped by adding 50 µl of stopping solution (IN HCl) to each well. Plates were shaken in an orbital shaker for 10 seconds. Spectrophotometric absorbance was measured at 490 nm test wavelength and 690 nm reference wavelength. The results were determined as % cytotoxicity. The average absorbance value of the negative control group (no cyclic dodecapeptide added) was subtracted from each of the experiment groups. […] The control and experiment groups were compared relative to the positive control group, and their cytotoxicities were measured by using the formula below: % Cytotoxicity = ([Experiment−NegativeControl])/([PositiveControl−NegativeControl])∗100 [formula]

control (normal) cells = assay: Lactate dehydrogenase (LDH) release cytotoxicity assay, control group; format: cell-based
Source text: as §1
Both MCF-7 and control (normal) cells were detached from 75 cm^2 flasks with trypsin-EDTA and centrifuged. Cells were resuspended in cell culture media and diluted to a concentration of 50 cells/ µl 100 µl of cell suspension was transferred to each well of a 96-well plate. Three wells of cells were used for each concentration of cyclic dodecapeptide. The asay was performed in triplicates. […] The media of the experiment groups was replaced with media containing 50, 100, or 200 µg/ml of cyclic dodecapeptide. After the cells were incubated with cyclic dodecapeptide for 24 hours, the activity of released lactate dehydrogenase was detected following manufacture prototol. 5 µl of lysis solution (2% Triton-X-100) was added to each well. The plate was incubated at 37 °C for 15 minutes. 100 µ ? of freshly prepared reaction mixture containing catalyst (Diaphoresis NAD^+mixture) and dye solution (iodotetrazolium chloride (INT) and sodium lactate) was added to each well. After incubation in dark at room temperature for 30 minutes, the reaction was stopped by adding 50 µl of stopping solution (IN HCl) to each well. Plates were shaken in an orbital shaker for 10 seconds. Spectrophotometric absorbance was measured at 490 nm test wavelength and 690 nm reference wavelength. The results were determined as % cytotoxicity. The average absorbance value of the negative control group (no cyclic dodecapeptide added) was subtracted from each of the experiment groups. A positive control group for maximum LDH release was used as 100% cytotoxicity. The control and experiment groups were compared relative to the positive control group, and their cytotoxicities were measured by using the formula below: % Cytotoxicity = ([Experiment−NegativeControl])/([PositiveControl−NegativeControl])∗100 [formula]

emryonic neurons of rats = conditions: cited from earlier work
human glioblastoma cells = conditions: cited from earlier work

Row | Molecule | release of lactate dehydrogenase, % cytotoxicity, MDA-MB 231 group (MDA-MB 231 cells; 50 µg/ml) [%] | release of lactate dehydrogenase, % cytotoxicity, MDA-MB 231 group (MDA-MB 231 cells; 100 µg/ml) [%] | release of lactate dehydrogenase, % cytotoxicity, MDA-MB 231 group (MDA-MB 231 cells; 200 µg/ml) [%] | release of lactate dehydrogenase, % cytotoxicity, MCF-7 group (MCF-7 cells; 50 µg/ml) [%] | release of lactate dehydrogenase, % cytotoxicity, MCF-7 group (MCF-7 cells; 100 µg/ml) [%] | release of lactate dehydrogenase, % cytotoxicity, MCF-7 group (MCF-7 cells; 200 µg/ml) | release of lactate dehydrogenase, % cytotoxicity, control group (control (normal) cells; 50 µg/ml, FIG. 4 (control group to MCF-7)) [%] | release of lactate dehydrogenase, % cytotoxicity, control group (control (normal) cells; 50 µg/ml, FIG. 5 (control group to MDA-MB 231)) [%] | release of lactate dehydrogenase, % cytotoxicity, control group (control (normal) cells; 100 µg/ml, FIG. 4 (control group to MCF-7)) [%] | release of lactate dehydrogenase, % cytotoxicity, control group (control (normal) cells; 100 µg/ml, FIG. 5 (control group to MDA-MB 231)) [%] | release of lactate dehydrogenase, % cytotoxicity, control group (control (normal) cells; 200 µg/ml, FIG. 4 (control group to MCF-7)) [%] | release of lactate dehydrogenase, % cytotoxicity, control group (control (normal) cells; 200 µg/ml, FIG. 5 (control group to MDA-MB 231)) [%] | cytotoxicity (emryonic neurons of rats) | cytotoxicity (human glioblastoma cells)
1 | CC[C@H](C)[C@@H]1NC(=O)[C@H](CCCNC(=N)N)NC(=O)[C@@H](NC(=O)[C@H](CC(C)C)NC(=O)[C@@H](N)CCCNC(=N)N)CSSC[C@@H](C(=O)N[C@@H](CCCNC(=N)N)C(=O)O)NC(=O)[C@H](C(C)C)NC(=O)[C@H](CCCNC(=N)N)NC(=O)[C@H]([C@@H](C)CC)NC(=O)[C@H](C(C)C)NC(=O)[C@H](C(C)C)NC1=O [cyclic dodecapeptide, RLCRIVVIRVCR] (H-RLCRIVVIRVCR-OH; disulfide 3-11) | 19.1±1.9 | 17.1±2.2 | 33.93±9 | 20.11±8.3 | 76.22±4.1 | 61.55+4% | 12.8±1.9 | 3.9±0.9 | 13.36±1.5 | 4.73±1.7 | 12.07±1.4 | 4.8±1.3 | – | –
2 | bactenecin (RLCRIVVIRVCR; disulfide 3-11; UniProt P22226 144-155, looked up) | – | – | – | – | – | – | – | – | – | – | – | – | strongly cytotoxic | strongly cytotoxic
